This assay concerns NCI-H196 complex spheroid growth, percent test/control. In words: Anticancer human tumor NCI-H196 cell line growth inhibition [AhR].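 For all read-outs here: seven days of drug exposure starting three days after plating.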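 For viability, T/C: 100% = DMSO vehicle control wells.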 The conditions noted are these: for viability, T/C: stronger effect = lower value. Summed up:
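Agents were dosed in half-log steps down from roughly clinical Cmax, or from 10 microM where Cmax was unknown, alone and with AhR antagonists. Read-out: percent test/control growth of tumor spheroids containing HUVEC and MSC stromal cells.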

Where [1] appears, read: curve of first compound, second compound 0.1 µM.
Setting [2] is: curve of first compound, second compound 0.316 µM.
Setting [3] is: curve of first compound, second compound 1 µM.
The mark [4] stands for this setting: curve of first compound, second compound 3.16 µM.
Setting [5] is: curve of first compound, second compound 10 µM.
Where [6] appears, read: second compound 0.1 µM, first compound 0.000949 µM.
Setting [7] is: second compound 0.1 µM, first compound 0.003 µM.
[8] abbreviates: second compound 0.1 µM, first compound 0.00949 µM.
Where [9] appears, read: second compound 0.1 µM, first compound 0.03 µM.
Setting [10] is: second compound 0.1 µM, first compound 0.0949 µM.
[11] abbreviates: second compound 0.1 µM, first compound 0.3 µM.
Setting [12] is: second compound 0.316 µM, first compound 0.000949 µM.
Where [13] appears, read: second compound 0.316 µM, first compound 0.003 µM.
Where [14] appears, read: second compound 0.316 µM, first compound 0.00949 µM.
[15] abbreviates: second compound 0.316 µM, first compound 0.03 µM.
The mark [16] stands for this setting: second compound 0.316 µM, first compound 0.0949 µM.
Setting [17] is: second compound 0.316 µM, first compound 0.3 µM.
The mark [18] stands for this setting: second compound 1 µM, first compound 0.000949 µM.
The mark [19] stands for this setting: second compound 1 µM, first compound 0.003 µM.
Setting [20] is: second compound 1 µM, first compound 0.00949 µM.
The mark [21] stands for this setting: second compound 1 µM, first compound 0.03 µM.
Setting [22] is: second compound 1 µM, first compound 0.0949 µM.
The mark [23] stands for this setting: second compound 1 µM, first compound 0.3 µM.
Setting [24] is: second compound 3.16 µM, first compound 0.000949 µM.
The mark [25] stands for this setting: second compound 3.16 µM, first compound 0.003 µM.
[26] abbreviates: second compound 3.16 µM, first compound 0.00949 µM.
The mark [27] stands for this setting: second compound 3.16 µM, first compound 0.03 µM.
The mark [28] stands for this setting: second compound 3.16 µM, first compound 0.0949 µM.
Where [29] appears, read: second compound 3.16 µM, first compound 0.3 µM.
The mark [30] stands for this setting: second compound 10 µM, first compound 0.000949 µM.
[31] abbreviates: second compound 10 µM, first compound 0.003 µM.
Setting [32] is: second compound 10 µM, first compound 0.00949 µM.
[33] abbreviates: second compound 10 µM, first compound 0.03 µM.
Where [34] appears, read: second compound 10 µM, first compound 0.0949 µM.
Setting [35] is: second compound 10 µM, first compound 0.3 µM.

Values joined by “and” are separate entries in the source; they are usually repeats but may differ in a detail not shown here. Equal entries are not always repeated.

In general, viability, T/C refers to the result in the treated group divided by that in the control group, in per cent. Usually IC50 stands for the point on the concentration scale where inhibition reaches its midpoint.

For the molecule `CC1(C)CCC(CN2CCN(c3ccc(C(=O)NS(=O)(=O)c4ccc(NCC5CCOCC5)c([N+](=O)[O-])c4)c(Oc4cnc5[nH]ccc5c4)c3)CC2)=C(c2ccc(Cl)cc2)C1`, the viability, T/C was 98.2% and 106% and 89% (compound 0.0316 µM); 110% and 103% and 101% (compound 0.1 µM); 109% and 97.2% (2×) (compound 0.316 µM); 109% and 103% and 96.6% (compound 1 µM); 93.8% and 103% and 99.2% (compound 3.16 µM); 104% and 72.5% and 89.6% (compound 10 µM). Moreover, the IC50 (curve of compound) is > 10000 nM.
Turning to `CCc1c2c(nc3ccc(O)cc13)-c1cc3c(c(=O)n1C2)COC(=O)[C@]3(O)CC` + CC(CO)NC(=O)c1cc(-c2ccc(Cl)cc2)nn(-c2cnn(C)c2)c1=O, the IC50 under setting [1] was > 300 nM; the IC50 under setting [2] is > 300 nM; the concentration for half-maximal inhibition (IC50) under setting [3] is > 300 nM; the IC50 under setting [4] is > 300 nM; the 50% inhibitory concentration (IC50) under setting [5] is > 300 nM. Moreover, the viability, T/C by setting is: under setting [6], 98%; under setting [7], 104%; under setting [8], 107%; under setting [9], 105%; under setting [10], 103%; under setting [11], 92.9%. The viability, T/C is, setting by setting: under setting [12], 108%; under setting [13], 116%; under setting [14], 113%; under setting [15], 113%; under setting [16], 108%; under setting [17], 92.2%. The viability, T/C under setting [18] was 108%; the viability, T/C under setting [19] was 115%; the viability, T/C under setting [20] was 117%; the viability, T/C under setting [21] was 98.4%; the viability, T/C under setting [22] was 101%; the viability, T/C under setting [23] was 81.8%. Moreover, the viability, T/C under setting [24] is 112%; the viability, T/C under setting [25] is 110%; the viability, T/C under setting [26] was 105%; the viability, T/C under setting [27] was 104%; the viability, T/C under setting [28] was 101%; the viability, T/C under setting [29] was 85.3%. Also, the viability, T/C reads like this: under setting [30], 111%; under setting [31], 111%; under setting [32], 112%; under setting [33], 107%; under setting [34], 107%; under setting [35], 87.7%.
Turning to `COc1cc(C2c3cc4c(cc3C(OC3OC5COC(C)OC5C(O)C3O)C3COC(=O)C23)OCO4)cc(OC)c1O` (centres undefined), the viability, T/C reads like this: (compound 0.0316 µM) 114% and 96.5% and 94.6%; (compound 0.1 µM) 103% and 110% and 111%; (compound 0.316 µM) 122% and 107% and 91.5%; (compound 1 µM) 94.3% and 121% and 94.5%; (compound 3.16 µM) 93.5% and 114% and 91.3%; (compound 10 µM) 90.1% and 89.2% and 76.2%. Moreover, for the setting “curve of compound”, the IC50 is > 10000 nM.
Take `CC1COCCN1c1cc(-c2ccnn2C)c2ccnc(-c3ccn[nH]3)c2n1` (centres undefined) + CC(CO)NC(=O)c1cc(-c2ccc(Cl)cc2)nn(-c2cnn(C)c2)c1=O: the IC50 is > 1000 nM under setting [1]; > 1000 nM under setting [2]; > 1000 nM under setting [3]; > 1000 nM under setting [4]; > 1000 nM under setting [5]. For the same molecule, the viability, T/C runs as follows: (second compound 0.1 µM, first compound 0.00316 µM) 104%; (second compound 0.1 µM, first compound 0.01 µM) 109%; (second compound 0.1 µM, first compound 0.0316 µM) 101%; (second compound 0.1 µM, first compound 0.1 µM) 79.3%; (second compound 0.1 µM, first compound 0.316 µM) 72.2%; (second compound 0.1 µM, first compound 1 µM) 61.1%. The viability, T/C (second compound 0.316 µM, first compound 0.00316 µM) is 105%; the viability, T/C (second compound 0.316 µM, first compound 0.01 µM) is 98.9%; the viability, T/C (second compound 0.316 µM, first compound 0.0316 µM) is 97.9%; the viability, T/C (second compound 0.316 µM, first compound 0.1 µM) was 78.6%; the viability, T/C (second compound 0.316 µM, first compound 0.316 µM) is 66.3%; the viability, T/C (second compound 0.316 µM, first compound 1 µM) is 68.5%. Also, the viability, T/C is 108% (second compound 1 µM, first compound 0.00316 µM); 104% (second compound 1 µM, first compound 0.01 µM); 101% (second compound 1 µM, first compound 0.0316 µM); 90.8% (second compound 1 µM, first compound 0.1 µM); 77.4% (second compound 1 µM, first compound 0.316 µM); 71% (second compound 1 µM, first compound 1 µM). The viability, T/C is, setting by setting: (second compound 3.16 µM, first compound 0.00316 µM) 111%; (second compound 3.16 µM, first compound 0.01 µM) 102%; (second compound 3.16 µM, first compound 0.0316 µM) 98%; (second compound 3.16 µM, first compound 0.1 µM) 82.4%; (second compound 3.16 µM, first compound 0.316 µM) 80%; (second compound 3.16 µM, first compound 1 µM) 66.5%. Moreover, the viability, T/C reads like this: (second compound 10 µM, first compound 0.00316 µM) 103%; (second compound 10 µM, first compound 0.01 µM) 98.5%; (second compound 10 µM, first compound 0.0316 µM) 107%; (second compound 10 µM, first compound 0.1 µM) 89.4%; (second compound 10 µM, first compound 0.316 µM) 74.2%; (second compound 10 µM, first compound 1 µM) 79.8%.
Take `Nc1ncn(C2CC(O)C(CO)S2)c(=O)n1` (centres undefined) + Cc1cncc(-c2nc(NCCc3c[nH]c4ccccc34)c3ncn(C(C)C)c3n2)c1: the IC50 under setting [1] is > 300 nM; the IC50 under setting [2] was > 300 nM; the IC50 under setting [3] was > 300 nM; the IC50 under setting [4] is > 300 nM; the IC50 under setting [5] was > 300 nM. In addition, the viability, T/C under setting [6] was 109%; the viability, T/C under setting [7] was 112%; the viability, T/C under setting [8] was 109%; the viability, T/C under setting [9] was 111%; the viability, T/C under setting [10] is 118%; the viability, T/C under setting [11] was 116%. Further, the viability, T/C runs as follows: under setting [12], 101%; under setting [13], 110%; under setting [14], 113%; under setting [15], 112%; under setting [16], 115%; under setting [17], 111%. Also, the viability, T/C under setting [18] was 107%; the viability, T/C under setting [19] is 110%; the viability, T/C under setting [20] is 108%; the viability, T/C under setting [21] was 116%; the viability, T/C under setting [22] is 121%; the viability, T/C under setting [23] is 123%. The viability, T/C by setting is: under setting [24], 118%; under setting [25], 125%; under setting [26], 115%; under setting [27], 114%; under setting [28], 116%; under setting [29], 117%. Besides, the viability, T/C runs as follows: under setting [30], 92.3%; under setting [31], 92.9%; under setting [32], 101%; under setting [33], 101%; under setting [34], 93.8%; under setting [35], 106%.

The values above are taken from PubChem BioAssay AID1919016 (Molecular Pharmacology Branch, DTP, NCI, 2023).
